According to ChEMBL document CHEMBL1150343, “Guanidine and 2-aminoimidazoline aromatic derivatives as alpha2-adrenoceptor antagonists. 2. Exploring alkyl linkers for new antidepressants” (J Med Chem, 2008):

Experiments:
[1] = Displacement of [3H]RX821002 from alpha2 adrenergic receptor in human brain prefrontal cortex tissue by liquid scintillation spectrometry; format: tissue-based
Rattus norvegicus [2] = assay: Increase in extracellular noradrenaline levels in Sprague-Dawley rat brain prefrontal cortex at 10 mg/kg, ip systematically administered by microdialysis by relative to control; format: functional; conditions: route intraperitoneal
Rattus norvegicus [3] = assay: Increase in extracellular noradrenaline levels in Sprague-Dawley rat brain prefrontal cortex at 1 to 100 uM, locally administered by microdialysis by relative to control
[4] = Agonist activity at alpha2 adrenergic receptor in human brain prefrontal cortex tissue by [35S]GTPgamma S binding assay; format: functional, tissue-based
[5] = Agonist activity at alpha2 adrenergic receptor in human brain prefrontal cortex tissue by [35S]GTPgamma S binding assay relative to UK-14304; format: functional

Structure (SMILES) | pKi [1] | further results
CCc1ccc(NC2=NCCN2)cc1.Cl | 6.68 | –
N=C(N)Nc1ccc(Nc2ccccc2)cc1 | 6.83 | –
c1cc2c(cc1NC1=NCCN1)Cc1cc(NC3=NCCN3)ccc1-2 | 6.32 | –
N=C(N)Nc1ccc(CCc2ccc(NC(=N)N)cc2)cc1 | 5.88 | –
N=C(N)Nc1ccc(N)cc1 | 5.58 | –
Cl.N=C(N)Nc1ccc2c(c1)CCCC2 | 7.11 | Activity (Rattus norvegicus [2]): 373%; Emax (Rattus norvegicus [3]): 326%
c1cc2c(cc1NC1=NCCN1)OCO2 | 7.33 | –
N=C(N)Nc1ccc(Oc2ccccc2)cc1 | 6.05 | –
c1cc2c(cc1NC1=NCCN1)Cc1ccc(NC3=NCCN3)cc1C2 | 7.58 | –
COc1ccc(NC(=N)N)cc1 | 6.39 | –
N=C(N)Nc1ccc(Sc2ccccc2)cc1 | 6.3 | –
c1ccc(Sc2ccc(NC3=NCCN3)cc2)cc1 | 6.62 | –
CSc1ccc(NC(=N)N)cc1 | 6.4 | –
Cc1ccc(NC(=N)N)cc1.Cl | 6.53 | –
Cl.c1ccc(Cc2ccc(NC3=NCCN3)cc2)cc1 | 6.85 | –
Cl.N=C(N)Nc1ccccc1 | 6.19 | –
COC1(C2=NCCN2)COc2ccccc2O1 (stereo not given) | 9.04 | Emax (Rattus norvegicus [3]): 287%
Cc1ccc(NC2=NCCN2)cc1C.Cl | 7.68 | EC50 [4]: 62.9 µM; Emax [5]: 89%
c1cc2c(cc1NC1=NCCN1)OCCO2 | 7.85 | –

Structure (SMILES) | pKi [1] | further results
c1cc(NC2=NCCN2)ccc1CCc1ccc(NC2=NCCN2)cc1 | 7.02 | Activity (Rattus norvegicus [2]): 156%; Emax (Rattus norvegicus [3]): 255%
c1ccc2c(c1)OCC(C1=NCCN1)O2 (stereo not given) [IDAZOXAN] | – | Emax (Rattus norvegicus [3]): 235%
Cl.c1cc2c(cc1NC1=NCCN1)CCC2 | 8.26 | EC50 [4]: 4.4 µM; Emax [5]: 98%
N=C(N)Nc1ccc2c(c1)OCCO2 | 8.21 | –
N=C(N)Nc1ccc2c(c1)Cc1ccc(NC(=N)N)cc1C2 | 7.96 | –
CCc1ccc(NC(=N)N)cc1.Cl | 5.55 | –
Cl.c1ccc(NC2=NCCN2)cc1 | 6.48 | –
CSc1ccc(NC2=NCCN2)cc1 | 7.07 | –
Cl.N=C(N)Nc1ccc2c(c1)CCC2 | 6.51 | –
COc1ccc(NC2=NCCN2)cc1 | 7.77 | –
c1ccc(Oc2ccc(NC3=NCCN3)cc2)cc1 | 6.58 | –
N=C(N)Nc1ccc2c(c1)Cc1cc(NC(=N)N)ccc1-2 | 6.12 | –
Cc1ccc(NC2=NCCN2)cc1.Cl | 7.82 | EC50 [4]: 15.2 µM; Emax [5]: 97%
c1ccc(Nc2ccc(NC3=NCCN3)cc2)cc1 | 6.56 | –
Cl.N=C(N)Nc1ccc(Cc2ccccc2)cc1 | 6.38 | –
Cl.c1cc2c(cc1NC1=NCCN1)CCCC2 | 7.33 | EC50 [4]: 1.1 µM; Emax [5]: 100%
Nc1ccc(NC2=NCCN2)cc1 | 6.92 | –
N=C(N)Nc1ccc2c(c1)OCO2 | 6.4 | –
